Test results as given in article PMC11579541, “In vitro, in vivo, and in silico approaches for evaluating the preclinical DMPK profiles of ammoxetine, a novel chiral serotonin and norepinephrine reuptake inhibitor” (Frontiers in Pharmacology, 2024).

How the values were obtained:
[1] = Bidirectional permeability measurements in MDCK-MDR1 monolayers; type: in vitro ADME, canine; conditions: dog, MDCK-MDR1, 2 h
Protocol: (§1) MDCK-MDR1 cells at passage 17 were cultured in DMEM supplemented with 10% FBS, 1% glutamine, 100 U/mL penicillin/streptomycin, 1% NEAA, and 1 mmol/L sodium pyruvate. The cells were incubated overnight at 37°C with 5% CO2 and a relative humidity of 90%. Once the cells reached approximately 80% confluence, they were treated with a 0.25% trypsin/EDTA solution to dissociate the cells. Subsequently, the cells were seeded at a density of 5 × 10^5 cells/cm^2 in Millicell-96 well plates (Millipore, Burlington, USA). Prior to conducting the experiments, the integrity of the cell monolayer was confirmed by measuring transepithelial electrical resistance (TEER) using a Millicell ERS® meter (Millipore, Burlington, USA). A TEER value greater than 400 Ω cm^2 was required to ensure the formation and preservation of tight junctions.
(§2) Cell monolayers were preincubated with HBSS for 15 min at 37°C. To measure the A→B (apical side to basolateral side of monolayer) transporter, 400 μL of ammoxetine solution was added to the A-side (donor chamber), and 1,200 μL of HBSS solution was added to the B-side (receiver chamber). The B→A transporter was evaluated by adding 1,200 μL of ammoxetine solution to the B-side (donor chamber) and 400 μL of HBSS solution to the A-side (receiver chamber). At 0 h, 50 μL of the solution was taken from the donor chamber, and aliquots of 50 μL were taken from the receiver chamber at 15, 30, 45, 60, 90, and 120-min time intervals. The collected aliquots were immediately replaced with equal volumes of fresh blank HBSS. Ammoxetine transport was studied at three concentrations: 0.2, 1, and 5 μg/mL, with each concentration evaluated in triplicate. […] Ammoxetine samples collected from the receiver chambers at different time points were mixed with 150 μL of acetonitrile/methanol (1:1, v/v) solution containing 50 ng/mL L-phencynonate (IS). The mixtures were then vortexed for 1 min and centrifuged for 10 min at 13,800×g. The supernatants were analyzed using an LC-MS-MS method.
(§3) The apparent permeability coefficient ( Papp , cm/s) values for ammoxetine were determined using Equation 1: Papp=dQ/dt/A×C0 (1)
(§4) Here, dQ/dt represents the amount of drug transported to the receiver chamber within a specific time period, A is the surface area of the cell monolayer (=0.33 cm^2), and C0 is the initial concentration of ammoxetine.
(§5) In general, the involvement of a P-gp-mediated efflux mechanism was indicated if the efflux ratio ( ER ) value exceeded 1.5 ([Langthaler et al., 2024]). […]

P-gp = assay: as above; type: in vitro ADME, canine; conditions: dog, MDCK-MDR1, with verapamil 100 μmol/L, verapamil 100 μmol/L
Protocol: as §1, §2, §3, §4, §5

MDCK-MDR1 cells = assay: as above; type: in vitro ADME, canine; conditions: from ER and verapamil effect
Protocol: as §1, §2, §3, §4, §5

P-gp (MDR1) = assay: as above; type: in vitro ADME, canine; conditions: dog, MDCK-MDR1, read-out: ER [Papp(B→A)⁄Papp(A→B)]
Protocol: as §1, §2, §3, §4, §5

Excretion study in rats = type: in vivo, SD rats; conditions: 20 mg/kg oral; for Bile Cumulative excretion rate / Bile Excretion rate: bile duct cannulated rats; for Feces Cumulative excretion rate / Feces Excretion rate / Urine Cumulative excretion rate / Urine Excretion rate: rats
Protocol: Five SD rats were pre-adapted in separate metabolic cages with access to water and a solid diet. They were then administered a single oral dose of 20 mg/kg of ammoxetine after a 12-h fasting period and free access to water. Feces and urine samples were collected at specific time intervals: 0–5 h, 5–12 h, 12–24 h, 24–48 h, and 48–72 h post-administration. The dried fecal weights and urine volumes were measured and recorded at each sampling period. The collected feces were ground, thoroughly mixed, and then homogenized in distilled water to create a 10% homogenate, which was used as the fecal sample. In parallel, after a 12-h fasting period with free access to water, five SD rats were anesthetized, and bile duct cannulation was performed to collect bile samples. Once recovered from anesthesia, these rats received a single oral dose of 20 mg/kg of ammoxetine via oral gavage. Bile was collected at the following time points: 0–5 h, 5–12 h, 12–24 h, 24–48 h, and 48–72 h post-dosing, and its volume was measured. All collected samples were stored at −30°C until further processing. For sample processing, 100 μL of feces homogenates, urine, or bile samples were taken and mixed with 100 μL of L-phencynonate (IS, 50 ng/mL) and 300 μL of methanol. After vortexing, the mixture was centrifuged at 13,800×g for 10 min. The resulting supernatants were analyzed using an LC-MS-MS method.

CNCC[C@H](Oc1cccc2c1OCO2)c1cccs1 [ammoxetine]
Papp A→B at 2 h, 0.2 μg/mL ([1]; 0.2 μg/mL): 15.8 ± 2.83 ×10⁻⁶ cm/s | Papp B→A at 2 h, 0.2 μg/mL ([1]; 0.2 μg/mL): 26.5 ± 5.3 ×10⁻⁶ cm/s | Papp A→B at 2 h, 1 μg/mL ([1]; 1 μg/mL): 6.61 ± 0.555 ×10⁻⁶ cm/s | Papp B→A at 2 h, 1 μg/mL ([1]; 1 μg/mL): 11.5 ± 2.93 ×10⁻⁶ cm/s | Papp A→B at 2 h, 5 μg/mL ([1]; 5 μg/mL): 13.2 ± 1.26 ×10⁻⁶ cm/s | Papp B→A at 2 h, 5 μg/mL ([1]; 5 μg/mL): 25.2 ± 3.49 ×10⁻⁶ cm/s | Papp A→B at 120 min, 0.2 μg/mL (P-gp; 0.2 μg/mL): 27.2 ± 6.43 ×10⁻⁶ cm/s | Papp A→B at 120 min, 1 μg/mL (P-gp; 1 μg/mL): 28.8 ± 1.89 ×10⁻⁶ cm/s | Papp A→B at 120 min, 5 μg/mL (P-gp; 5 μg/mL): 29.9 ± 3.29 ×10⁻⁶ cm/s | P-gp substrate status (MDCK-MDR1 cells): likely a substrate of P-gp | efflux ratio at 120 min, 0.2 μg/mL (P-gp (MDR1); 0.2 μg/mL): 1.67 | efflux ratio at 120 min, 1 μg/mL (P-gp (MDR1); 1 μg/mL): 1.74 | efflux ratio at 120 min, 5 μg/mL (P-gp (MDR1); 5 μg/mL): 1.9 | Bile Cumulative excretion rate (Excretion study in rats; 0–5 h): 0.089 ± 0.058% | Bile Excretion rate (Excretion study in rats; 0–5 h): 0.089 ± 0.058% | Bile Cumulative excretion rate (Excretion study in rats; 5–12 h): 0.271 ± 0.257% | Bile Excretion rate (Excretion study in rats; 5–12 h): 0.182 ± 0.212% | Bile Cumulative excretion rate (Excretion study in rats; 12–24 h): 0.420 ± 0.384% | Bile Excretion rate (Excretion study in rats; 12–24 h): 0.149 ± 0.146% | Bile Cumulative excretion rate (Excretion study in rats; 24–48 h): 0.420 ± 0.384% | Bile Excretion rate (Excretion study in rats; 48–72 h): 0.016 ± 0.016% | Bile Cumulative excretion rate (Excretion study in rats; 48–72 h (at 72 h)): 0.436 ± 0.400% | Feces Cumulative excretion rate (Excretion study in rats; 0–5 h): 0.010 ± 0.008% | Feces Excretion rate (Excretion study in rats; 0–5 h): 0.010 ± 0.008% | Urine Cumulative excretion rate (Excretion study in rats; 0–5 h): 0.116 ± 0.034% | Urine Excretion rate (Excretion study in rats; 0–5 h): 0.116 ± 0.034% | Feces Cumulative excretion rate (Excretion study in rats; 5–12 h): 0.216 ± 0.060% | Feces Excretion rate (Excretion study in rats; 5–12 h): 0.206 ± 0.056% | Urine Cumulative excretion rate (Excretion study in rats; 5–12 h): 0.223 ± 0.069% | Urine Excretion rate (Excretion study in rats; 5–12 h): 0.107 ± 0.048% | Feces Cumulative excretion rate (Excretion study in rats; 12–24 h): 0.361 ± 0.168% | Feces Excretion rate (Excretion study in rats; 12–24 h): 0.145 ± 0.126% | Urine Cumulative excretion rate (Excretion study in rats; 12–24 h): 0.273 ± 0.124% | Urine Excretion rate (Excretion study in rats; 12–24 h): 0.050 ± 0.057% | Feces Cumulative excretion rate (Excretion study in rats; 24–48 h): 0.380 ± 0.180% | Feces Excretion rate (Excretion study in rats; 24–48 h): 0.019 ± 0.016% | Urine Cumulative excretion rate (Excretion study in rats; 24–48 h): 0.287 ± 0.134% | Urine Excretion rate (Excretion study in rats; 24–48 h): 0.014 ± 0.010% | Feces Excretion rate (Excretion study in rats; 48–72 h): 0.002 ± 0.003% | Urine Excretion rate (Excretion study in rats; 48–72 h): 0.005 ± 0.003% | Feces Cumulative excretion rate (Excretion study in rats; 48–72 h (at 72 h)): 0.382 ± 0.180% | Urine Cumulative excretion rate (Excretion study in rats; 48–72 h (at 72 h)): 0.292 ± 0.137%
